Measurements from patent US20220259193A1, “KCNT1 INHIBITORS AND METHODS OF USE” (Praxis Precision Medicines, Inc., priority 2019, published 2022).

These molecules were tested against T1, KCNT1 (KNa1.1, Slack) (Homo sapiens, UniProt Q5JUK3) (assay: KCNT1 patch clamp assay (SyncroPatch 384PE automated patch clamp)). Conditions: tetracycline inducible HEK-TREX cell line; perforated patch; step from −80 mV to 0 mV; room temperature; read-out: KCNT1-WT IC50.
T1 construct: expressed in transfected cells; host or cells: HEK-TREX (tetracycline-inducible HEK cell line)
T1 sequence (Q5JUK3 1-1230): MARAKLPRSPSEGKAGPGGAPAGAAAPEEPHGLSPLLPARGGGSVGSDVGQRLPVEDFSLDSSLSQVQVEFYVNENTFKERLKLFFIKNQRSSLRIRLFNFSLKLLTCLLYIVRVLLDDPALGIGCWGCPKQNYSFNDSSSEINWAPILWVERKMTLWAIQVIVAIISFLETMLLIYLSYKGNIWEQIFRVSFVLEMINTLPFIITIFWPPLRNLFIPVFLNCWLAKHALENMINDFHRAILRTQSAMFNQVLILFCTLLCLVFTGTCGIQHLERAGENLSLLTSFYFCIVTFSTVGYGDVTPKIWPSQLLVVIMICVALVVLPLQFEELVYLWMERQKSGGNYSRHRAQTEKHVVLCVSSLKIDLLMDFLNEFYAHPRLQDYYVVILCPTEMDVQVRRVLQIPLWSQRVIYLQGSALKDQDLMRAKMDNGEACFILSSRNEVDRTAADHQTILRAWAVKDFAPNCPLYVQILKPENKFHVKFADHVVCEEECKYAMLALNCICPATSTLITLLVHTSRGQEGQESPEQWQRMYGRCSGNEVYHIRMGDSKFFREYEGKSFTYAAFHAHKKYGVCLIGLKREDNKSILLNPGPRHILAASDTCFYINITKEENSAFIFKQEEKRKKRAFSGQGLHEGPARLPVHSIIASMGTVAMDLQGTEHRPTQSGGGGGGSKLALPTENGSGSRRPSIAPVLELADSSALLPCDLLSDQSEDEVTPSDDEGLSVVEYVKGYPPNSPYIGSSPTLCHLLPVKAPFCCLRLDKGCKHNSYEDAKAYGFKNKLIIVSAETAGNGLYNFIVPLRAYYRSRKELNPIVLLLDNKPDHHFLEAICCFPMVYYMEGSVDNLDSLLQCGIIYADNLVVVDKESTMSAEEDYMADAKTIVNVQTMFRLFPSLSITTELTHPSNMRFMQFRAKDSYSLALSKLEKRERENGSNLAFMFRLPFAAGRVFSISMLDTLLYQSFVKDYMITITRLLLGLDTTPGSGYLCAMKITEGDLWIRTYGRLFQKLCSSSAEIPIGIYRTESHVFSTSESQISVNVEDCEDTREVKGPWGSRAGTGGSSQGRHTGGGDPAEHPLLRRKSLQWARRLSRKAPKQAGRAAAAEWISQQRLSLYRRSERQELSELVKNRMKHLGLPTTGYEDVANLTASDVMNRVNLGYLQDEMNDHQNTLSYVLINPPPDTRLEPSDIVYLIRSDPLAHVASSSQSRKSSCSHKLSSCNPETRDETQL
Type: cell-based
Outline: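 Tetracycline-inducible HEK-TREX cells; perforated-patch (10 μM escin) population recordings at room temperature, holding −80 mV with 100 ms step to 0 mV.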
`CC(=O)Oc1cccc(-c2noc(C(C)NC(=O)c3cc(C(F)(F)F)nn3C)n2)c1` (racemic) [Compound 185, 3-(5-(1-(1-methyl-3-(trifluoromethyl)-1H-pyrazole-5-carboxamido)ethyl)-1,2,4-oxadiazol-3-yl)phenyl acetate] gave an IC50 of 1000 to 20000 nM.
For `CC[C@H](NC(=O)c1cc(C(F)(F)F)nn1C)c1nc(-c2ccnc(C)c2)no1` [Compound 199, (S)-1-methyl-N-(1-(3-(2-methylpyridin-4-yl)-1,2,4-oxadiazol-5-yl)propyl)-3-(trifluoromethyl)-1H-pyrazole-5-carboxamide], the IC50 was ≤ 1000 nM.
`Cc1nn(C(C)C)cc1C(=O)N[C@@H](C)c1nc(-c2cccc(C(F)(F)F)c2)no1` [Compound 89] was tested, and the IC50 was ≤ 1000 nM.
With `CC[C@H](NC(=O)c1cc(C2CC2)nn1C)c1nc(-c2cccc(F)c2)no1` [Compound 60] the IC50 was ≤ 1000 nM.
For `Cc1nn(C(C)C)cc1C(=O)N[C@@H](C)c1nc(-c2cccc(C#N)c2)no1` [Compound 85], the IC50 was ≥ 20000 nM.
`C[C@H](NC(=O)c1cc(C(F)(F)F)nn1C)c1nc(-c2cccc(C#N)c2)no1` [Compound 104] gave an IC50 of 1000 to 20000 nM.
`Cn1nc(C(F)(F)F)cc1C(=O)NC(CN)c1nc(-c2cccc(F)c2)no1` (stereo not shown) [Compound 167, N-[2-amino-1-[3-(3-fluorophenyl)-1,2,4-oxadiazol-5-yl]ethyl]-2-methyl-5-(trifluoromethyl)pyrazole-3-carboxamide] gave an IC50 of 1000 to 20000 nM.
`C[C@H](NC(=O)c1cc(C(F)F)nn1C)c1nc(-c2ccnc(C(F)(F)F)c2)no1` [Compound 238] was tested, and the IC50 was ≤ 1000 nM.
For `Cc1nn(C(C)C)cc1C(=O)N[C@@H](C)c1nc(-c2cccc(F)c2)no1` [Compound 153], the IC50 was ≤ 1000 nM.
For `CC(NC(=O)c1cc(C2CC2)nn1C)c1nc(-c2cccc(Cl)c2)no1` (stereo not shown) [Compound 6], the IC50 was ≤ 1000 nM.
`C[C@H](NC(=O)c1cc(C(F)(F)F)nn1CCN1CCCC1)c1nc(-c2ccnc(C(F)(F)F)c2)no1` [Compound 257, (S)-1-(2-(pyrrolidin-1-yl)ethyl)-3-(trifluoromethyl)-N-(1-(3-(2-(trifluoromethyl)pyridin-4-yl)-1,2,4-oxadiazol-5-yl)ethyl)-1H-pyrazole-5-carboxamide] was tested, and the IC50 was ≤ 1000 nM.
`CC[C@H](NC(=O)c1ccnn1C1CCCC1)c1nc(-c2ccnc(C)c2)no1` [Compound 216, (S)-1-cyclopentyl-N-(1-(3-(2-methylpyridin-4-yl)-1,2,4-oxadiazol-5-yl)propyl)-1H-pyrazole-5-carboxamide] was tested, and the IC50 was ≤ 1000 nM.
For `CC[C@H](NC(=O)c1cc(-c2ccccc2)nn1C)c1nc(-c2ccnc(C)c2)no1` [Compound 226, (S)-1-methyl-N-(1-(3-(2-methylpyridin-4-yl)-1,2,4-oxadiazol-5-yl)propyl)-3-phenyl-1H-pyrazole-5-carboxamide], the IC50 was ≤ 1000 nM.
With `CC(C)[C@H](NC(=O)c1cc(C2CC2)nn1C)c1nc(-c2cccc(F)c2)no1` [Compound 63] the IC50 was ≤ 1000 nM.
With `CC(C)Oc1cc(-c2noc([C@H](C)NC(=O)c3cc(C(F)(F)F)nn3CC(=O)N(C)C)n2)ccn1` [Compound 224, (S)-1-(2-(dimethylamino)-2-oxoethyl)-N-(1-(3-(2-isopropoxypyridin-4-yl)-1,2,4-oxadiazol-5-yl)ethyl)-3-(trifluoromethyl)-1H-pyrazole-5-carboxamide] the IC50 was ≤ 1000 nM.
With `Cn1nc(C(F)(F)F)cc1C(=O)NC(CC(=O)N1CC(O)C1)c1nc(-c2cccc(F)c2)no1` (stereo not shown) [Compound 124] the IC50 was ≥ 20000 nM.
With `C[C@H](NC(=O)c1cc(C(F)(F)F)nn1Cc1ccncc1)c1nc(-c2ccnc(C(F)(F)F)c2)no1` [Compound 246, (S)-1-(pyridin-4-ylmethyl)-3-(trifluoromethyl)-N-(1-(3-(2-(trifluoromethyl)pyridin-4-yl)-1,2,4-oxadiazol-5-yl)ethyl)-1H-pyrazole-5-carboxamide] the IC50 was ≤ 1000 nM.
With `C[C@H](NC(=O)c1cc(C(F)(F)F)nn1C)c1nc(-c2nccc(C(F)(F)F)n2)no1` [Compound 237, (S)-1-methyl-3-(trifluoromethyl)-N-(1-(3-(4-(trifluoromethyl)pyrimidin-2-yl)-1,2,4-oxadiazol-5-yl)ethyl)-1H-pyrazole-5-carboxamide] the IC50 was ≥ 20000 nM.
`CC(NC(=O)c1cc(C(F)(F)F)nn1C)c1nc(-c2cccc(CC#N)c2)no1` (stereo not shown) [Compound 178, N-(1-(3-(3-(cyanomethyl)phenyl)-1,2,4-oxadiazol-5-yl)ethyl)-1-methyl-3-(trifluoromethyl)-1H-pyrazole-5-carboxamide] was tested, and the IC50 was 1000 to 20000 nM.
In the case of `C[C@H](NC(=O)c1cc(C(F)(F)F)nn1Cc1cccnc1)c1nc(-c2ccnc(C(F)(F)F)c2)no1` [Compound 253, (S)-1-(pyridin-3-ylmethyl)-3-(trifluoromethyl)-N-(1-(3-(2-(trifluoromethyl)pyridin-4-yl)-1,2,4-oxadiazol-5-yl)ethyl)-1H-pyrazole-5-carboxamide], the IC50 is reported as ≤ 1000 nM.
Molecule `Cc1nn(C(C)C)cc1C(=O)N[C@@H](C)c1nc(-c2cccc(F)c2)no1` [Compound 95] has an IC50 of 1000 to 20000 nM.
With `CC[C@H](NC(=O)c1cc(C(F)(F)F)nn1C(F)F)c1nc(-c2cccc(F)c2)no1` [Compound 112] the IC50 was ≤ 1000 nM.
For `COC[C@H](NC(=O)c1cc(C(F)(F)F)nn1C)c1nc(-c2cccc(C)c2)no1` (single isomer, unassigned) [Compound 81], the IC50 was ≤ 1000 nM.
In the case of `C[C@H](NC(=O)c1cc(C(F)F)nn1C(F)F)c1nc(-c2cccc(F)c2)no1` [Compound 130], the IC50 is reported as ≤ 1000 nM.
For `Cc1cccc(-c2noc(C(C)NC(=O)c3cc(C(F)F)nn3C)n2)c1` (stereo not shown) [Compound 21], the IC50 was ≤ 1000 nM.
`CC(=O)NC[C@@H](NC(=O)c1cc(C(F)(F)F)nn1C)c1nc(-c2cccc(F)c2)no1` [Compound 137] gave an IC50 of 1000 to 20000 nM.
In the case of `CCC(NC(=O)c1cc(C2CC2)nn1C)c1nc(-c2cccc(F)c2)no1` (stereo not shown) [Compound 48], the IC50 is reported as ≤ 1000 nM.
With `C[C@H](NC(=O)c1cc(C(F)(F)F)nn1C)c1nc(-c2ccnc(OC3CC(F)(F)C3)c2)no1` [Compound 208, (S)—N-(1-(3-(2-(3,3-difluorocyclobutoxy)pyridin-4-yl)-1,2,4-oxadiazol-5-yl)ethyl)-1-methyl-3-(trifluoromethyl)-1H-pyrazole-5-carboxamide] the IC50 was ≤ 1000 nM.
In the case of `CC(NC(=O)c1cc(C(F)(F)F)nn1C)c1nc(-c2ccc(Cl)cc2Cl)no1` (stereo not shown) [Compound 75], the IC50 is reported as ≤ 1000 nM.
With `CO[C@@H](C)[C@@H](NC(=O)c1cc(C(F)(F)F)nn1C)c1nc(-c2cccc(F)c2)no1` [Compound 138] the IC50 was ≤ 1000 nM.
In the case of `COc1cc(-c2noc([C@H](C)NC(=O)OC(C)(C)C)n2)cc(C)n1` [Compound 287, tert-butyl (S)-(1-(3-(2-methoxy-6-methylpyridin-4-yl)-1,2,4-oxadiazol-5-yl)ethyl)carbamate], the IC50 is reported as ≤ 1000 nM.
Molecule `C[C@H](NC(=O)c1cn(C)nc1C(F)(F)F)c1nc(-c2cccc(F)c2)no1` [Compound 160] has an IC50 of 1000 to 20000 nM.
`CC(C)c1cc(-c2noc([C@H](C)NC(=O)c3cc(C(F)(F)F)nn3C)n2)ccn1` [Compound 269, (S)—N-(1-(3-(2-isopropylpyridin-4-yl)-1,2,4-oxadiazol-5-yl)ethyl)-1-methyl-3-(trifluoromethyl)-1H-pyrazole-5-carboxamide] was tested, and the IC50 was ≤ 1000 nM.
For `C[C@H](NC(=O)c1cc(C(F)(F)F)nn1C)c1nc(-c2ccnc(C(F)(F)F)n2)no1` [Compound 242, (S)-1-methyl-3-(trifluoromethyl)-N-(1-(3-(2-(trifluoromethyl)pyrimidin-4-yl)-1,2,4-oxadiazol-5-yl)ethyl)-1H-pyrazole-5-carboxamide], the IC50 was 1000 to 20000 nM.
